According to US20240252437A1, “Methods For and Products From Encapsulation of Drugs in Nanoparticles in a Microgravity Environment” (Aphios Corporation, priority 2021, published 2024):

Assays:
α-secretase = assay: HEK-293e cell model for APP processing: sAPP-α release by alkaline phosphatase absorbance at 620 nm (Earth); format: cell-based, human; details: for release of sAPP-α (increase in absorbance at 620 nm): HEK-293e cells stimulated for 24 h at 10^−8M, n=3
Description: The HEK-293e cell line was optimized for studying α-secretase in vitro.
HEK-293e cells are grown to confluency in T75 dishes in DMEM (Dulbecco's Modified Eagle Medium) and 10% FCS (Fetal Calf Serum) with 2 mM L-glutamine and pen-strepamphotericin. Supplements are needed to maintain plasmid expression: (1) Hygromycin stock solution=100× solution=4 mg/mL, final concentration=40 μg/mL (50 mg/12.5 mL makes 4 mg/mL); (2) Puromycin stock solution=100× solution=30 μg/mL stock, final concentration=0.3 μg/mL. Wait for 24-48 hours. All studies used phenol Red Free DMEM medium with 2% FCS. This must be heated to 65° C. for 30 minutes to inactivate endogenous alkaline phosphatase and cooled prior to making up test solutions.
For test solutions, remove 10% FCS growth medium and replace with 1 mL phenol red free DMEM medium+2% FCS per tube (various drug concentrations and control), and freeze cells in cryotubes. Thaw cryotubes and then: (1) Incubate cells at 37° C. for different time points; (2) Centrifuge tube at 1×g for 5 minutes and refreeze tubes to isolate culture supernatants; (3) Thaw tubes and transfer supernatants to new tube: (4) Make up substrate—Phos Blue (KPL Cat #50-88-00) according to manufacturer's instructions; (5) Transfer 100 µL of each sample and add 100 μL of substrate to 96 well plates; (6) Read immediately—record absorbance at 620 nm; and (7) Reacts quickly so record absorbance every 15 minutes for 60 minutes.
After freezing Bryosomes™, HEK-293e cells and cell culture media at −80 °C and thawing after 1, 3, 6 and 16 hours, the samples were analyzed for α-secretase production (FIG. 3). […] Thus, the concentration of 10^−8 M Bryosomes™ after mixing was targeted for the Space mission.

PKC-ε = target: T1, PKC-ε (Homo sapiens, UniProt Q02156); details: in vitro studies (Yi et al., 2012); cited from earlier work
T1 sequence (Q02156 1-737): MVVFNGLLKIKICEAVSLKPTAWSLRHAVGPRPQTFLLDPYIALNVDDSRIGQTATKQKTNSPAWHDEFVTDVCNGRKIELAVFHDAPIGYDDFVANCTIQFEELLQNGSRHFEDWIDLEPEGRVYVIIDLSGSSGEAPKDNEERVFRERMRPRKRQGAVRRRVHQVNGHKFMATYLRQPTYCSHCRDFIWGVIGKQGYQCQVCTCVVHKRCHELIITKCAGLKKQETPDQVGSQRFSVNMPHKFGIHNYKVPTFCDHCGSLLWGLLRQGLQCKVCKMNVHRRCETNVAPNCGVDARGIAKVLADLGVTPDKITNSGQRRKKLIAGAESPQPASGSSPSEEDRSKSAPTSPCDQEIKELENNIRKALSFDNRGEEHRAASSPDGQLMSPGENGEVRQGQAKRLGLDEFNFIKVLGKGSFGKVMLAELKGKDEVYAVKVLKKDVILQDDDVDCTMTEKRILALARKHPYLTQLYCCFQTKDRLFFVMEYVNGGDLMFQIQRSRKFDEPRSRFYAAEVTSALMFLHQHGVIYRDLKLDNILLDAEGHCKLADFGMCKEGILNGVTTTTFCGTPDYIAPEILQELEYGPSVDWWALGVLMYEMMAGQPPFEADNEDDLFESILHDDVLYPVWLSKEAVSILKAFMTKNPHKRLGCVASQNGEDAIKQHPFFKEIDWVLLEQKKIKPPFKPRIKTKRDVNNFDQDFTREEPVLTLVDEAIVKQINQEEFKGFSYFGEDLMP

AD-transgenic mice = details: intranasally-active and orally active (Schrott et al., 2015); cited from earlier work

Compound: CCC/C=C/C=C/C(=O)O[C@H]1/C(=C/C(=O)OC)C[C@H]2C[C@H]([C@@H](C)O)OC(=O)C[C@H](O)C[C@@H]3C[C@H](OC(C)=O)C(C)(C)[C@](O)(C[C@@H]4C/C(=C/C(=O)OC)C[C@H](/C=C/C(C)(C)[C@]1(O)O2)O4)O3 [Bryostatin-1]
- release of sAPP-α (increase in absorbance at 620 nm) (α-secretase): significantly increased
- release of sAPP-α (increase in absorbance at 620 nm) (α-secretase; listed as Bryostatin-I): strongly induces
- release of sAPP-α (α-secretase; HEK-293e cells, concentrations lower than 10^−8M): do not affect release
- activation of PKC-ε isoform (PKC-ε): activate
- cognitive performance (AD-transgenic mice): rapidly restores cognitive performance
